Results from patent US6562854B2, “Compositions comprising a substituted benzimidazole useful for treating immunomediated inflammatory disorders” (Axys Pharmaceuticals, Inc., priority 1994, dated 2003).
Counter-ions that a name gives are not always drawn.

Test system: tryptase purified from human lung or skin tissue preparations or human mast cell line (HMC-1)
Assay: In vitro Tryptase Inhibition Assay
Type: biochemical
Conditions: substrate tosyl-Gly-Pro-Lys-p-nitroanilide; Tris-HCl pH 8.2; zinc chloride 150 μM; 1 hour preincubation at room temperature; read-out: Ki (apparent inhibition constant, tryptase inhibitory activity)
Method: Tryptase solution ([…]) was prepared by dissolving tryptase purified from human lung or skin tissue preparations or human mast cell line (HMC-1) or obtained from commercial sources, e.g., ICN Biomeidals, Irvine, Calif., Athens Research & Technology, Athens, Ga., etc., in a solvent mixture comprising: 10 mM 2-N-morpholinoethane sulfonic acid, 2 mM CaCl2, 20% glycerol and 50 µg/mL heparin. Substrate solution containing 2 mM synthetic tripeptide (tosyl-Gly-Pro-Lys-p-nitroanilide) was obtained from Sigma. Test Compound solutions were prepared by diluting a stock solution (1 mg of test Compound in 200 μL of dimethylsulfoxide (DMSO)) by ten-fold into assay buffer (comprising: Tris-HCl (pH 8.2), 50 mM; NaCl, 100 MM; 0.05% polyoxyethylenesorbitan monolaurate (Tween-20®); and zinc chloride, 150 μM) and then making seven additional three-fold dilutions into 10% DMSO in assay buffer.
Aliquots (50 μL) from each of the eight dilutions of test compound solution were added to separate wells in a 96-well U-bottom microtiter plate. Typtase solution (25 μL) was added to each well and the solutions were mixed 1 hour at room temperature. Substrate solution (25 μL) was added to initiate the enzymatic reaction and the microtiter plates were immediately transferred to a UVIMAX Kinetic Microplate Reader (Molecular Devices). The hydrolysis of the chromogenic substrate was followed spectrophotometrically at 405 nanometers for five minutes. Initial velocity measurements were calculated from the progress curves by kinetic analysis program (BatchKi; Petr Kuzmic, University of Wisconsin, Madison, Wis.). Apparent inhibition constants (K) were calculated from the enzyme progress curves using standard mathematical models.

Point of comparison: NCc1ccc2[nH]c(Cc3nc4cc(C(=O)NCCCCc5ccccc5)ccc4[nH]3)nc2c1 [Compound 1, 2-(5-Aminomethyl-1H-benzoimidazol-2-ylmethyl)-N-(4-phenylbutyl)-1H-benzoimidazole-5-carboxamide trifluoroacetate], Ki 90 nM. Against it:
- COCCn1c(C(C)c2nc3c([nH]2)CCN(C(C)=N)C3)nc2ccc(C(=O)NCCOc3ccccc3C(=O)O)cc21 (stereo not drawn) [Compound 194, 2-[2-(2-{1-[5-(1-iminoethyl)-4,5,6,7-tetrahydro-1H-imidazo [4,5-c]pyridin-2-yl]ethyl)-3-(2-methoxyethyl)-3H-benzoimidazol-5-ylcarbonylamino)ethoxy]benzoic acid] — 10-fold lower, 9 nM
- N=C(N)Nc1ccc2[nH]c(Cc3nc4ccc(C(=O)NCCc5cccc6ccccc56)cc4n3CC(O)CO)nc2c1 (stereo not drawn) [Compound 132, 2-(5-guanidino-1H-benzoimidazol-2-ylmethyl)-3-(2,3-dihydroxy)propyl-N-(2-naphth-1-ylethyl)-3H-benzoimidazole-5-carboxamide] — 4500-fold lower, 0.02 nM
- CC(=N)N1CCc2[nH]c(Cc3nc4ccc(C(=O)NCC(O)c5cccc6ccccc56)cc4n3C)nc2C1 (stereo not drawn) [Compound 126, 2-[5-(1-iminoethyl)-4,5,6,7-tetrahydro-1H-imidazo[4,5-c]pyridin-2-ylmethyl]-3-methyl-N-(2-hydroxy-2-naphth-1-ylethyl)-3H-benzoimidazole-5-carboxamide] — 11-fold lower, 8 nM
- CC(c1nc2cc(NC(=N)N)ccc2[nH]1)c1nc2ccc(C(=O)NCCOc3ccc(Cl)cc3C(N)=O)cc2n1C (stereo not drawn) [Compound 250, 2-[1-(5-guanidino-1H-benzoimidazol-2-yl)ethyl]-N-[2-(2-carbamoyl-4-chlorophenoxy)ethyl]-3-methyl-3H-benzoimidazole-5-carboxamide] — 220-fold lower, 0.4 nM
- CC(=N)N1CCc2[nH]c(Cc3nc4ccc(C(=O)NCCc5c(O)ccc6ccccc56)cc4n3C)nc2C1 [Compound 127, 2-[5-(1-iminoethyl)-4,5,6,7-tetrahydro-1H-imidazo[4,5-c]pyridin-2-ylmethyl]-3-methyl-N-[2-(2-hydroxynaphth-1-yl)ethyl]-3H-benzoimidazole-5-carboxamide] — 15-fold lower, 6 nM
- CCOC(=O)c1ccccc1OCCNC(=O)c1ccc2nc(C(C)c3nc4cc(OC(=O)OC)ccc4n3C(=O)C(C)C)n(C)c2c1 (stereo not drawn) [Compound 84, Ethyl 2-(2-{2-[1-(1-isobutyryl-5-methoxycarbonyloxy-1H-benzoimidazol-2-yl)ethyl]-3-methyl-3H-benzoimidazol-5-ylcarbonylamino}ethoxy)benzoate] — 29-fold higher, 2600 nM
- NCc1ccc2[nH]c(Cc3nc4cc(NC(=O)OCCc5ccccc5)ccc4[nH]3)nc2c1 [Compound 27, 2-Phenylethyl 2-(5-aminomethyl-1H-benzoimidazol-2-ylmethyl)-1H-benzoimidazole-5-carbamate trifluoroacetate] — 6.7-fold higher, 600 nM
- N=C(N)Nc1ccc2[nH]c(Cc3nc4ccc(C(=O)NCCc5cccc6ccccc56)cc4n3CCCO)nc2c1 [Compound 138, 2-(5-guanidino-1H-benzoimidazol-2-ylmethyl)-3-(3-hydroxy)propyl-N-(2-naphth-1-ylethyl)-3H-benzoimidazole-5-carboxamide] — 450-fold lower, 0.2 nM

Test system: antigen challenged sheep
Assay: Sheep Model of Asthma (allergic sheep, antigen challenge)
Type: in vivo
Conditions: 24 hours after antigen challenge; 1 mg aerosol 0.5 hours before, 4 hours after and 24 hours after challenge; n=3; baseline 15, control group fell to 7
Source text: The allergic sheep model of asthma was employed for the in vivo evaluation of the compounds of the invention as antiasthmatics. These methods have been published previously (see Abraham et al. (1983) Am. Rev. Respir. Dis. 128:839-844; Allegra et al. (1983) J. Appl. Physiol. 55:726-730; Russi et al. (1985) J. Appl. Physiol. 59:1416-1422; Soler et al. ((1989) J. Appl. Physiol. 67:406-413. Each sheep serves as its own control. Body weights for these animals ranged from 20-50 kilograms.
In these studies, 1 mg of Compound 13 was dissolved in 3 mL distilled water, and the total solution delivered as an aerosol 0.5 hours before, 4 hours after, and 24 hours after antigen challenge (total dose=1 mg; n=3).
Twenty-four hours after antigen challenge in both the control and drug trial, the sheep developed airway hyper-responsiveness. Airway hyper-responsiveness is expressed as PC400, the concentration of carbachol that causes a 400% increase in SRL; therefore, a decrease in PC400 indicates hyper-responsiveness. […] The number of breath units fell to 7 for those animals in the control group.

With NCc1ccc2[nH]c(Cc3nc4cc(C(=O)NCCc5cccc6ccccc56)ccc4[nH]3)nc2c1 [Compound 13] the “PC400 (airway hyper-responsiveness; concentration of carbachol that causes a 400% increase in SRL)” value was about 15 breath units.

Same assay, conditions: antigen challenged sheep, aerosol treatment

In the case of NCc1ccc2[nH]c(Cc3nc4cc(C(=O)NCCc5cccc6ccccc56)ccc4[nH]3)nc2c1 [Compound 13], the airway function is reported as “significant improvement in airway function”.

Same assay, conditions: antigen challenged sheep, aerosol, 24 hours after challenge

NCc1ccc2[nH]c(Cc3nc4cc(C(=O)NCCc5cccc6ccccc56)ccc4[nH]3)nc2c1 [Compound 13] was tested, and the “onset of airway hyper-responsiveness” value was “block the onset of hyper-responsiveness”.
